Measurements as given in patent US20260345624A1, “TREATMENT OF PROSTATE CANCER BY PROMOTING PDE4D7” (KONINKLIJKE PHILIPS N.V., priority 2022, published 2026).
“Also recorded” adds a separate entry of the source.

Columns and labels:
LNCaP WT cells = assay: xCELLigence real-time proliferation of WT LNCaP cells; assay type: cell-based; conditions: for WT LNCaP growth, strongest effect: enzalutamide 1 μM and above; for WT LNCaP cell proliferation: enzalutamide 0.1-30 μM, all concentrations tested
Protocol: (§1) xCELLigence Real-Time Cell Analysis (RTCA)
(§2) Real-time cell growth was analysed using the xCELLigence RTCA system (Agilent), which measures real-time cell adhesion across gold microelectrode biosensors on 96 well electronic plates (E-plates) within a 37 °C incubator with 5% CO2. Cellular adhesion influences electrical impedance which is converted into the cell index (CI) via RTCA software. Initial background measurements were recorded with 100 μL RPMI 1640 medium, followed by addition of 100 μL LNCaP cell suspension (10,000 cells/wells) for measurement of CI over time. Approximately 24 h after seeding, cells were treated with specified concentrations of drugs. Negative controls containing either 0.1% DMSO or untreated cells were also included. CI was transformed to normalised CI via the RTCA software to timepoint of treatment.

[1] = test system: PDE4D7-knockdown LNCaP P1 cells; assay: xCELLigence real-time proliferation of PDE4D7-knockdown P1 LNCaP cells; assay type: cell-based
Text: Stable shRNA-mediated lentiviral transduced LNCaP cell lines were generated by AMSBIO (Table 1). Briefly, shRNA-PDE4D7 was cloned into a lentivector and delivered into LNCaP clone FGC cells (ATCC) via lentivirus (MOI=10). Cells were maintained in puromycin-supplemented medium prior to selection of stably transduced cells. A stable shRNA-PDE4D7 LNCaP cell line was then re-transduced with lentivirus delivering PDE4D7 to generate a re-introduced cell line. Scrambled-shRNA was used as a control. All cells were cultured in RPMI 1640 medium (Gibco D), supplemented with 10% (v/v) foetal bovine serum, 1% (v/v) L-Glutamine and 1% (v/v) penicillin/streptomycin, and stored within a 37 °C incubator with 5% CO2.
as §1, §2

PCa = conditions: He et al., 2019; cited from earlier work
cAMP production = conditions: Miller et al., 2013; cited from earlier work
P1-TET4D7 LNCaP cells = assay: Real-time growth of P1 LNCaP cells with Tet-On inducible PDE4D7; assay type: cell-based; conditions: enzalutamide 10 μM, Tet-On doxycycline-induced PDE4D7
Protocol: as §1, §2
PDE4D7 (GenBank ID AF536976) sequence was first subcloned into lentivirus vectors with CMV (LVR-1001-pLV-CMV-PGK-Puro) and then into Tet-On inducible vector pLV-tet-on-3G-P2A-Puro, LNCaP-shRNA P1 cells were maintained in RPMI1640 medium supplemented with 10% (v/v) foetal bovine serum, 1% (v/v) L-Glutamine and 1% (v/v) penicillin/streptomycin, and infected with Tet-On inducible lentivirus at MOI=5-10 in the presence of 8 μg/ml polybrene. […]

SMILES | growth of WT cells (LNCaP WT cells; metformin, all concentrations (0-25 μM)) | growth inhibition independent of PDE4D7 expression, WT (LNCaP WT cells; summary statement, WT vs P1) | growth inhibition of P1 cells ([1]; metformin, only at highest concentrations tested (0-25 μM)) | growth inhibition independent of PDE4D7 expression, P1 ([1]; summary statement, WT vs P1) | overall survival/time to recurrence in PCa (PCa) | treatment/reduction of PCa tumours (PCa) | cAMP production (cAMP production) | WT LNCaP growth, strongest effect (LNCaP WT cells) | WT LNCaP growth, strongest effect (LNCaP WT cells; listed as Enzalutamide) | WT LNCaP cell proliferation (LNCaP WT cells) | WT LNCaP cell proliferation (LNCaP WT cells; listed as Enzalutamide) | P1 LNCaP growth vs DMSO control ([1]; enzalutamide, higher concentrations up to 30 μM) | P1 LNCaP proliferation ([1]; enzalutamide, increasing doses 0-30 μM) | resistance to enzalutamide upon PDE4D7 knockdown ([1]; overall conclusion, 0-30 μM) | sensitivity to enzalutamide upon PDE4D7 re-expression (P1-TET4D7 LNCaP cells)
CN(C)C(=N)N=C(N)N [metformin, Metformin] | significantly reducing growth of WT cells at all concentrations | reduce tumor growth independent of PDE4D7 expression levels; also recorded: inhibit LNCaP cell growth irrespective of PDE4D7 expression status | significant inhibition was only observed in P1 cells at highest concentrations tested | reduce tumor growth independent of PDE4D7 expression levels; also recorded: inhibit LNCaP cell growth irrespective of PDE4D7 expression status | enhance overall survival/time to recurrence | no evidence of it treating/reducing the PCa tumours itself | decrease CAMP production |  |  |  |  |  |  |  | 
CNC(=O)c1ccc(N2C(=S)N(c3ccc(C#N)c(C(F)(F)F)c3)C(=O)C2(C)C)cc1F [enzalutamide] |  |  |  |  |  |  |  | least growth | most profound effects | significant decrease in WT LNCaP cell proliferation | significant decrease in WT LNCaP cell proliferation at all concentrations tested | significantly enhanced growth; also recorded: increased growth at higher concentrations | minimal reductions in cell proliferation | confers resistance to anti-androgens such as enzalutamide | restored sensitivity to enzalutamide; also recorded: rescued upon PDE4D7 re-expression
